Legend:
serotonin-2 receptor = experiment: Anti-serotonin action (anti-5-HT action): contraction of isolated superior mesenteric artery induced by serotonin; settings: contraction induced by 10^−5 M serotonin (5-HT) taken as 100%, Hartley male guinea pig superior mesenteric artery; for Anti 5-HT action (% of Control) 10^−6 M: test drug 10^−6 M; for Anti 5-HT action (% of Control) 10^−7 M: test drug 10^−7 M
Experimental: (1) Anti-Serotonin Action (Anti-5-HT Action)
A preparation cut in a helical form was suspended under 0.3 g load in a Magnus cylinder filled with the Tyrode solution which had been aerated with a gas mixture of 95% O2+5% CO2 and maintained at 37° C. Using an isometric transducer (“UL-10”, manufactured by SHINKOH K.K.) and a pressure preamplifier (“DSA-605A”, manufactured by SHINKOH K.K.), variations in tension were measured. The isometric tensions were recorded on a pen-writing recorder (“VP-6537A”, manufactured by NATIONAL K.K.). Taking the contraction induced by 10^−5 M serotonin (5-HT) as 100%, the percent contractions in the presence of each test drug at 10^−7 and 10^−6 M were determined as anti-5-HT action.

α1 receptor = experiment: Anti-α1 action: tonic contraction of isolated thoracic aorta induced by norepinephrine; settings: tonic contraction induced by 10^−5 M norepinephrine (NE) taken as 100%, Hartley male guinea pig thoracic aorta; for Anti α1 action (% of Control) 10^−7 M: test drug 10^−7 M; for Anti α1 action (% of Control) 10^−8 M: test drug 10^−8 M
Experimental: The thoracic aorta of each Hartley male guinea pig (body weight: 300-500 g) was excised. A preparation cut in a helical form was suspended under 1 g load in a Magnus cylinder filled with the Tyrode solution which had been aerated with a gas mixture of 95% O2+5% CO2 and maintained at 37° C. Using an isometric transducer (“TB-612J”, manufactured by NIHON KOHDEN) and a pressure preamplifier (“AP-620G”, manufactured by NIHON KOHDEN), variations in tension were measured. The isometric tensions were recorded on a thermal pen-writing recorder (“WT-647G”, manufactured by NIHON KOHDEN).
Taking the tonic contraction induced by 10^−5 M norepinephrine (NE) as 100%, the percent contractions upon addition of each test drug at 10^−8 and 10^−7 M were determined as anti-α1 action.

O=S1(=O)c2ccc(Cl)cc2C2(CN1CCCN1CCN(c3ccc(F)cc3)CC1)OCCO2 [Compound No. 117, 6-chloro-2-[3-[4-(4-fluorophenyl)piperazin-1-yl]propyl]-3,4-dihydro-2H-1,2-benzothiazin-4-one 1,1-dioxide ethylene acetal]
Anti 5-HT action (% of Control) 10^−6 M (serotonin-2 receptor): 23.6 % of Control | Anti 5-HT action (% of Control) 10^−7 M (serotonin-2 receptor): 48.0 % of Control | Anti α1 action (% of Control) 10^−7 M (α1 receptor): 80.2 % of Control | Anti α1 action (% of Control) 10^−8 M (α1 receptor): 97.1 % of Control

O=C(c1ccc(F)cc1)C1CCN(CCCN2CC3(OCCO3)c3ccccc3S2(=O)=O)CC1 [Compound No. 40, 2-[3-[4-(4-fluorobenzoyl)piperidino]-propyl]-3,4-dihydro-2H-1,2-benzothiazine-4-spiro-2′-(1′,3′-dioxolan) 1,1-dioxide]
Anti 5-HT action (% of Control) 10^−6 M (serotonin-2 receptor): 13.4 % of Control | Anti 5-HT action (% of Control) 10^−7 M (serotonin-2 receptor): 37.4 % of Control | Anti α1 action (% of Control) 10^−7 M (α1 receptor): 73.2 % of Control | Anti α1 action (% of Control) 10^−8 M (α1 receptor): 98.3 % of Control

O=S1(=O)c2ccccc2C(O)CN1CCCN1CCN(c2ccc(F)cc2)CC1 (stereo not shown) [Compound No. 77, 2-[3-[4-(4-fluorophenyl)piperazin-1-yl]propyl]-4-hydroxy-3,4-dihydro-2H-1,2-benzothiazine 1,1-dioxide]
Anti 5-HT action (% of Control) 10^−6 M (serotonin-2 receptor): 18.2 % of Control | Anti 5-HT action (% of Control) 10^−7 M (serotonin-2 receptor): 45.7 % of Control | Anti α1 action (% of Control) 10^−7 M (α1 receptor): 79.6 % of Control | Anti α1 action (% of Control) 10^−8 M (α1 receptor): 100 % of Control

O=S1(=O)c2ccccc2C2(CN1CCCN1CCN(c3ccc(F)cc3)CC1)SCCS2 [Compound No. 66, 2-[3-[4-(4-fluorophenyl)piperazin-1-yl]propyl]-3,4-dihydro-2H-1,2-benzothiazine-4-spiro-2′-(1′,3′-dithiolan) 1,1-dioxide]
Anti 5-HT action (% of Control) 10^−6 M (serotonin-2 receptor): 2.8 % of Control | Anti 5-HT action (% of Control) 10^−7 M (serotonin-2 receptor): 66.6 % of Control | Anti α1 action (% of Control) 10^−7 M (α1 receptor): 86.5 % of Control | Anti α1 action (% of Control) 10^−8 M (α1 receptor): 100 % of Control
